The values that follow come from ChEMBL document CHEMBL4831555, “Identification and Validation of New Interleukin-2 Ligands Using DNA-Encoded Libraries” (J Med Chem, 2021).

Broadly, the Kd is the free concentration of one partner at which half of the binding sites on the other are occupied at equilibrium, for simple one-to-one binding. Low values mean tighter binding, high ones weaker binding. The term IC50 denotes the concentration needed to halve the response being measured.

Active and inactive are the calls of the source. The rule behind the calls is not given here.

Test [1] concerns the target T1, Interleukin-2 (Homo sapiens, UniProt P60568). Description: Binding affinity to L19-IL2 (unknown origin) by fluorescence polarization assay. On the technique in general: Polarisation of emitted light reports the rotation of a fluorescent probe.
The target in a further test is Albumin (Homo sapiens, UniProt P02768). Description: Binding affinity to human serum albumin by fluorescence polarization assay.
A short description of test [2]: Binding affinity to AGP (unknown origin) by fluorescence polarization assay. More on the design: species or system Homo sapiens.
For another test, the target named is Tumor necrosis factor (Homo sapiens, UniProt P01375). Kind of test: Binding affinity to TNF (unknown origin).
The target in test [3] is Interleukin-15 (Homo sapiens) (UniProt P40933). Description: Binding affinity to IL-15 (unknown origin).
In test [4] the target is T1, Interleukin-2. Kind of test: Binding affinity to IL2 (unknown origin) preincubated for 15 mins followed by NARA1 addition and measured after 1 hr in presence of NARA1 by ELISA. (In general: An ELISA detects its analyte on a solid surface through an enzyme-linked reagent.)
The nature of test [5]: Inhibition of IL2/IL-2Ralpha (unknown origin) interaction. Also on record: species or system Homo sapiens.
The target in test [6] is T1, Interleukin-2. Kind of test: Binding affinity to IL2 (unknown origin) by SPR assay.

Albumin, sequence (P02768 whole entry): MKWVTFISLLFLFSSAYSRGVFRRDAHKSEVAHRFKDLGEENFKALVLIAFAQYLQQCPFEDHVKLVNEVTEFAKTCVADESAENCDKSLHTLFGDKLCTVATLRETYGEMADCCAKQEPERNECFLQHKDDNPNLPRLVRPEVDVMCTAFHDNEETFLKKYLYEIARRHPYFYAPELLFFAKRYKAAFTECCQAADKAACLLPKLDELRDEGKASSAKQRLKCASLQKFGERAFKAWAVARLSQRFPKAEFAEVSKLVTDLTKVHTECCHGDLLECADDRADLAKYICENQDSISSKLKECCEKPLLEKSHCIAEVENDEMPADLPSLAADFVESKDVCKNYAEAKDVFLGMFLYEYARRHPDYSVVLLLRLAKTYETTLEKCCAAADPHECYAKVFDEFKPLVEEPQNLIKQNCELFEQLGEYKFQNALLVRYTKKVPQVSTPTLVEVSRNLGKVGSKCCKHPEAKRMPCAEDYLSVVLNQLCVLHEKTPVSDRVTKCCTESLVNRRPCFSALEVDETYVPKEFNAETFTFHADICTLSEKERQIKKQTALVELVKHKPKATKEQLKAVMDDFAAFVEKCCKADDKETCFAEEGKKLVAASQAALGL
T1 sequence (P60568 whole entry): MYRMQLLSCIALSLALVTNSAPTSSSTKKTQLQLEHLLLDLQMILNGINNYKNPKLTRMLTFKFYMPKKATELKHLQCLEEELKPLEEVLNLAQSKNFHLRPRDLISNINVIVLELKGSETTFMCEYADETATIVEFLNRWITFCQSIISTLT
Tumor necrosis factor, sequence (P01375 whole entry): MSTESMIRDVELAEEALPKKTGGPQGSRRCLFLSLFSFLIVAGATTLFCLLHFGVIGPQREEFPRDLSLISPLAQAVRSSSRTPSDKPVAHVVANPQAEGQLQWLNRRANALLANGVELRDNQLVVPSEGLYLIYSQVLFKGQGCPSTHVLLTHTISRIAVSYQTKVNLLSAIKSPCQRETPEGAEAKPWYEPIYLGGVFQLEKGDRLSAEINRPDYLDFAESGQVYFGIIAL
Interleukin-15 (Homo sapiens), sequence (P40933 whole entry): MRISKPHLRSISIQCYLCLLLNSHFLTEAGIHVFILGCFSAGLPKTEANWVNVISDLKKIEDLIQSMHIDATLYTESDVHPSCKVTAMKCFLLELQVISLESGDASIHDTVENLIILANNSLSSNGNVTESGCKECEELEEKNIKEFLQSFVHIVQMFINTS

As for `O=C(N[C@@H](Cc1ccc(O)c(I)c1)C(=O)O)c1cc2cccc(F)c2[nH]1`, the figures for the Kd at Interleukin-2 [1] and at Albumin were 390 nM and 210 nM, respectively.
For `O=C(N[C@H](Cc1ccc(O)c(I)c1)C(=O)O)c1cc2c(F)cccc2[nH]1`, the dissociation constant Kd at Interleukin-2 [1] amounted to 210 nM; on Albumin it was 220 nM.
Consider `N=C(N)NCCC[C@H](NC(=O)[C@H](Cc1ccc(O)c(I)c1)NC(=O)c1cc2c(F)cccc2[nH]1)C(=O)O`, for which the Kd at Interleukin-2 [1] was determined as 340 nM; on Albumin it was 2000 nM; in test [2], 3400 nM; on Tumor necrosis factor, 4400 nM. The outcome in test [3] was inactive. Further, the IC50 at Interleukin-2 [4] came out at 3400 nM.
As to `O=C(N[C@@H](Cc1ccc(O)cc1)C(=O)O)c1cc2c(F)cccc2[nH]1`, the figures for the Kd on Interleukin-2 [1] and at Albumin were 1400 nM and 1500 nM, respectively.
`N=C(N)NCCC[C@@H](NC(=O)[C@H](Cc1ccc(O)c(I)c1)NC(=O)c1cc2c(F)cccc2[nH]1)C(=O)O`: the Kd was determined as 870 nM on Interleukin-2 [1], 9600 nM on Albumin and 3000 nM in test [2].
Consider `O=C(N[C@@H](Cc1ccc(O)c([N+](=O)[O-])c1)C(=O)O)c1cc2c(F)cccc2[nH]1`, for which the Kd at Interleukin-2 [1] is 720 nM; at Albumin it was 310 nM.
In the same order, the values of `O=C(N[C@@H](Cc1ccc(O)c(F)c1)C(=O)O)c1cc2c(F)cccc2[nH]1` are 920 nM and 1700 nM.
Regarding `N=C(N)NCCC[C@H](NC(=O)[C@@H](Cc1ccc(O)c(I)c1)NC(=O)c1cc2c(F)cccc2[nH]1)C(=O)O`, the Kd at Interleukin-2 [1] is 1200 nM; on Albumin it was 3300 nM; in test [2], more than 10000 nM.
Turning to `CC(C)C[C@@H](NC(=N)N)C(=O)NCC(=O)N1CCC(c2cc(-c3ccc(OCc4ccc(C(=O)O)o4)c(Cl)c3Cl)nn2C)CC1`, the IC50 in test [5] was determined as 60 nM.
In test [5], `COC(=O)[C@H](Cc1ccc(C#Cc2ccccc2)cc1)NC(=O)C[C@@H]1CCCN(C(=N)N)C1` gave an IC50 of 3000 nM. Moreover, the Kd at Interleukin-2 [1] is 1500 nM; on Albumin it was 4000 nM; in test [2], 4900 nM; on Interleukin-2 [6], 22000 nM.
Regarding `O=C(N[C@@H](Cc1ccc(O)c(I)c1)C(=O)O)c1cc2cc(F)ccc2[nH]1`, the Kd worked out at 330 nM at Interleukin-2 [1] and 270 nM on Albumin.
In the same order, the values of `O=C(N[C@@H](Cc1ccc(O)c(I)c1)C(=O)O)c1cc2ccc(F)cc2[nH]1` are 280 nM and 170 nM.
On the same counts, the results for `O=C(N[C@@H](Cc1ccc(O)c(I)c1)C(=O)O)c1cc2ccccc2[nH]1` are 420 nM and 390 nM.
On the same counts, the results for `O=C(N[C@@H](Cc1ccc(O)c(I)c1)C(=O)O)c1c[nH]c2cccc(F)c12` are 510 nM and 820 nM.
Regarding `N=C(N)NCCC[C@@H](NC(=O)[C@@H](Cc1ccc(O)c(I)c1)NC(=O)c1cc2c(F)cccc2[nH]1)C(=O)O`, the Kd on Interleukin-2 [1] came to 710 nM; on Albumin, 7200 nM; in test [2] it was 4000 nM.
Turning to `COc1ccc(C[C@H](NC(=O)c2cc3c(F)cccc3[nH]2)C(=O)O)cc1`, the Kd at Interleukin-2 [1] is 1300 nM; at Albumin it was 430 nM.
In the same order, the values of `O=C(N[C@@H](Cc1ccc(O)c(Br)c1)C(=O)O)c1cc2c(F)cccc2[nH]1` are 300 nM and 780 nM.
Regarding `O=C(N[C@@H](Cc1ccc(O)c(I)c1)C(=O)O)c1cc2c(F)cccc2o1`, the Kd came to 2200 nM on Interleukin-2 [1] and 1000 nM at Albumin.
On the same counts, the results for `O=C(N[C@@H](Cc1ccc2ccccc2c1)C(=O)O)c1cc2c(F)cccc2[nH]1` are 750 nM and 30 nM.
For the compound `O=C(N[C@@H](Cc1ccc(O)c(I)c1)C(=O)O)c1cc2c(F)cccc2[nH]1`, the Kd at Interleukin-2 [1] turned out to be 250 nM; on Albumin it was 290 nM; at Tumor necrosis factor, 5100 nM.
Regarding `O=C(N[C@@H](Cc1cccc(I)c1)C(=O)O)c1cc2c(F)cccc2[nH]1`, the Kd stood at 250 nM on Interleukin-2 [1] and 20 nM at Albumin.
For the compound `O=C(N[C@@H](Cc1ccc(I)cc1)C(=O)O)c1cc2c(F)cccc2[nH]1`, the figures for the Kd at Interleukin-2 [1] and on Albumin were 640 nM and 70 nM, respectively.
In the same order, the values of `O=C(N[C@@H](Cc1ccc(O)c(Cl)c1)C(=O)O)c1cc2c(F)cccc2[nH]1` are 590 nM and 580 nM.
